{"source": "patent US20230174576A1", "about": "“BETA-STRAND BRIDGE PEPTIDE” (Xeno-Interface Inc., priority 2020, published 2023)", "system": "HeLa cells", "test": "Cell membrane permeability assay, evaluation by FACS", "assay_type": "cell-based", "details": "FITC-labeled peptide 0.1 μM, 37° C.", "experimental": "HeLa cells are grown in DMEM containing 10% fetal bovine serum and penicillin/streptomycin, treated with trypsin, washed twice with medium using a centrifuge, and seeded into multi-well plates for overnight incubation. FITC-labeled peptides are added to the cells at 37° C. and the cells are incubated at 37° C. The cells are washed twice with medium and twice with PBS, and treated with trypsin at 37° C. HeLa cells are collected and centrifuged, washed twice with medium and twice with PBS, and PBS containing propidium iodide is added to the cell. The cell membrane permeability of the peptides is quantitatively analyzed by FACS.\n(Evaluation of Cell Membrane Permeability by FACS)", "data": [{"substance": "Ac—W I F [K] H R—NH2 [WT]", "values": [{"measurement": "Mean: FITC-A", "result": 3192}]}]}
